The compounds below were run against T1, rat B1R (bradykinin receptor 1) (Rattus norvegicus, UniProt P97583) (assay: FLIPR Ca2+ assay (Fluo-4) on CHO K1 cells stably transfected with the B1R gene of the rat (rB1R cells): % inhibition at 10 μM / IC50, agonist Des-Arg9-bradykinin). Details: CHO-K1, rat B1R.
T1 construct: expressed in transfected cells; host or cells: CHO K1 cells
T1 sequence (P97583 1-337): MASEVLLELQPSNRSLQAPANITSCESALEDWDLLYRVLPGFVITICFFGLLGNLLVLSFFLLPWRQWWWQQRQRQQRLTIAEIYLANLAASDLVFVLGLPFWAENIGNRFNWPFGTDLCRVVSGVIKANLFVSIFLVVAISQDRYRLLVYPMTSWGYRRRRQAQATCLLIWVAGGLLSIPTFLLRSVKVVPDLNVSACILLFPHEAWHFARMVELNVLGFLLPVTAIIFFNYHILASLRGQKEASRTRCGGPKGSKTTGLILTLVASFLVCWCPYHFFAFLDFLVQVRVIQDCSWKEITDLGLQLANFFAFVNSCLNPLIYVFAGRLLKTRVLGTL
Format: cell-based
How it was run: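 Cells were Fluo-4-loaded, then test compound (10 μM, or a concentration series for IC50) was preincubated 10–20 min before agonist challenge at EC80: Lys-Des-Arg9-bradykinin for hB1R, Des-Arg9-bradykinin for rB1R. Peak Ca2+ fluorescence (ex 488/em 540 nm) gave % inhibition versus maximal achievable inhibition.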

| inhibition at 10 µM [%] | SMILES |
| --- | --- |
| 67 | O=C(c1ccc2c(c1)C(N(C(=O)c1ccccc1Cl)C1CC1)CC2)N1CCC2(CCN(S(=O)(=O)c3ccc(Cl)s3)CC2)C1 (stereo not shown) [IND_CC-615, 2-Chloro-N-[6-[8-[(5-chloro-thiophen-2-yl)sulfonyl]-2,8-diazaspiro[4.5]-decane-2-carbonyl]-2,3-dihydro-1H-inden-1-yl]-N-cyclopropyl-benzamide] |
| 81 | O=C(c1ccc2c(c1)C(N(C(=O)c1ccccc1Cl)C1CC1)CC2)N1CCC2(CCN(S(=O)(=O)c3ccc(F)cc3F)CC2)C1 (stereo not shown) [IND_CC-616, 2-Chloro-N-cyclopropyl-N-[6-[8-[(2,4-difluoro-phenyl)sulfonyl]-2,8-diazaspiro[4.5]decane-2-carbonyl]-2,3-dihydro-1H-inden-1-yl]-benzamide] |
| 67 | N#Cc1cc(S(=O)(=O)N2CCC3(CCN(C(=O)c4ccc5c(c4)C(N(C(=O)c4ccccc4Cl)C4CC4)CC5)C3)CC2)ccc1F (stereo not shown) [IND_CC-617, 2-Chloro-N-[6-[8-[(3-cyano-4-fluoro-phenyl)sulfonyl]-2,8-diazaspiro[4.5]-decane-2-carbonyl]-2,3-dihydro-1H-inden-1-yl]-N-cyclopropyl-benzamide] |
| 61 | N#Cc1ccccc1S(=O)(=O)N1CCC2(CCN(C(=O)c3ccc4c(c3)C(N(C(=O)c3ccccc3Cl)C3CC3)CC4)C2)CC1 (stereo not shown) [IND_CC-618, 2-Chloro-N-[6-[8-[(2-cyano-phenyl)sulfonyl]-2,8-diazaspiro[4.5]decane-2-carbonyl]-2,3-dihydro-1H-inden-1-yl]-N-cyclopropyl-benzamide] |
| 57 | Cn1ccc2cc(S(=O)(=O)N3CCC4(CCN(C(=O)c5ccc6c(c5)C(N(C(=O)c5ccccc5Cl)C5CC5)CC6)C4)CC3)ccc21 (stereo not shown) [IND_CC-619, 2-Chloro-N-cyclopropyl-N-[6-[8-[(1-methyl-1H-indol-5-yl)sulfonyl]-2,8-diazaspiro[4.5]decane-2-carbonyl]-2,3-dihydro-1H-inden-1-yl]-benzamide] |
| 54 | O=C(NC1CCc2ccc(C(=O)N3CCC4(CCN(Cc5ccc[nH]5)CC4)C3)cc21)c1cc(Cl)ccc1F (stereo not shown) [IND_CC-620, 5-Chloro-2-fluoro-N-[6-[8-(1H-pyrrol-2-yl-methyl)-2,8-diazaspiro[4.5]decane-2-carbonyl]-2,3-dihydro-1H-inden-1-yl]-benzamide] |
| 67 | O=C(NC1CCc2ccc(C(=O)N3CCC4(CCN(Cc5ccc(F)c(F)c5)CC4)C3)cc21)c1cc(Cl)ccc1F (stereo not shown) [IND_CC-621, 5-Chloro-N-[6-[8-[(3,4-difluoro-phenyl)-methyl]-2,8-diazaspiro[4.5]decane-2-carbonyl]-2,3-dihydro-1H-inden-1-yl]-2-fluoro-benzamide] |
| 69 | O=C(NC1CCc2ccc(C(=O)N3CCC4(CCN(Cc5ccc(F)cc5F)CC4)C3)cc21)c1cc(Cl)ccc1F (stereo not shown) [IND_CC-622, 5-Chloro-N-[6-[8-[(2,4-difluoro-phenyl)-methyl]-2,8-diazaspiro[4.5]decane-2-carbonyl]-2,3-dihydro-1H-inden-1-yl]-2-fluoro-benzamide] |
| 59 | COc1ccc(CN2CCC3(CC2)CCN(C(=O)c2ccc4c(c2)C(NC(=O)c2cc(Cl)ccc2F)CC4)C3)cc1F (stereo not shown) [IND_CC-623, 5-Chloro-2-fluoro-N-[6-[8-[(3-fluoro-4-methoxy-phenyl)-methyl]-2,8-diazaspiro[4.5]decane-2-carbonyl]-2,3-dihydro-1H-inden-1-yl]-benzamide] |
| 62 | O=C(NC1CCc2ccc(C(=O)N3CCC4(CCN(Cc5ccc[nH]5)CC4)CC3)cc21)c1cc(Cl)ccc1F (stereo not shown) [IND_CC-624, 5-Chloro-2-fluoro-N-[6-[9-(1H-pyrrol-2-yl-methyl)-3,9-diazaspiro[5.5]undecane-3-carbonyl]-2,3-dihydro-1H-inden-1-yl]-benzamide] |
| 50 | O=C(NC1CCc2ccc(C(=O)N3CCC4(CCN(Cc5c[nH]cn5)CC4)CC3)cc21)c1cc(Cl)ccc1F (stereo not shown) [IND_CC-625, 5-Chloro-2-fluoro-N-[6-[9-(1H-imidazol-4-yl-methyl)-3,9-diazaspiro[5.5]undecane-3-carbonyl]-2,3-dihydro-1H-inden-1-yl]-benzamide] |
| 55 | O=C(NC1CCc2ccc(C(=O)N3CCC4(CCN(Cc5ccccn5)CC4)CC3)cc21)c1cc(Cl)ccc1F (stereo not shown) [IND_CC-626, 5-Chloro-2-fluoro-N-[6-[9-(pyridin-2-yl-methyl)-3,9-diazaspiro[5.5]undecane-3-carbonyl]-2,3-dihydro-1H-inden-1-yl]-benzamide] |
| 54 | O=C(NC1CCc2ccc(C(=O)N3CCC4(CCN(Cc5ccncc5)CC4)CC3)cc21)c1cc(Cl)ccc1F (stereo not shown) [IND_CC-627, 5-Chloro-2-fluoro-N-[6-[9-(pyridin-4-yl-methyl)-3,9-diazaspiro[5.5]undecane-3-carbonyl]-2,3-dihydro-1H-inden-1-yl]-benzamide] |
| 63 | O=C(NC1CCc2ccc(C(=O)N3CCC4(CCN(Cc5ccc(F)c(F)c5)CC4)CC3)cc21)c1cc(Cl)ccc1F (stereo not shown) [IND_CC-628, 5-Chloro-N-[6-[9-[(3,4-difluoro-phenyl)-methyl]-3,9-diazaspiro[5.5]undecane-3-carbonyl]-2,3-dihydro-1H-inden-1-yl]-2-fluoro-benzamide] |
| 71 | O=C(NC1CCc2ccc(C(=O)N3CCC4(CCN(Cc5ccc(F)cc5F)CC4)CC3)cc21)c1cc(Cl)ccc1F (stereo not shown) [IND_CC-629, 5-Chloro-N-[6-[9-[(2,4-difluoro-phenyl)-methyl]-3,9-diazaspiro[5.5]undecane-3-carbonyl]-2,3-dihydro-1H-inden-1-yl]-2-fluoro-benzamide] |
| 53 | COc1ccc(CN2CCC3(CC2)CCN(C(=O)c2ccc4c(c2)C(NC(=O)c2cc(Cl)ccc2F)CC4)CC3)cc1F (stereo not shown) [IND_CC-630, 5-Chloro-2-fluoro-N-[6-[9-[(3-fluoro-4-methoxy-phenyl)-methyl]-3,9-diazaspiro[5.5]undecane-3-carbonyl]-2,3-dihydro-1H-inden-1-yl]-benzamide] |
| 57 | O=C(NC1CCc2ccc(C(=O)N3CCC4(CCN(Cc5c[nH]cn5)CC4)C3)cc21)c1cc(C(F)(F)F)ccc1Cl (stereo not shown) [IND_CC-631, 2-Chloro-N-[6-[8-(1H-imidazol-4-yl-methyl)-2,8-diazaspiro[4.5]decane-2-carbonyl]-2,3-dihydro-1H-inden-1-yl]-5-(trifluoromethyl)-benzamide] |
| 64 | O=C(NC1CCc2ccc(C(=O)N3CCC4(CCN(Cc5c(F)cccc5F)CC4)C3)cc21)c1cc(C(F)(F)F)ccc1Cl (stereo not shown) [IND_CC-632, 2-Chloro-N-[6-[8-[(2,6-difluoro-phenyl)-methyl]-2,8-diazaspiro[4.5]decane-2-carbonyl]-2,3-dihydro-1H-inden-1-yl]-5-(trifluoromethyl)-benzamide] |
| 86 | O=C(NC1CCc2ccc(C(=O)N3CCC4(CCN(Cc5ccc(F)c(F)c5)CC4)C3)cc21)c1cc(C(F)(F)F)ccc1Cl (stereo not shown) [IND_CC-633, 2-Chloro-N-[6-[8-[(3,4-difluoro-phenyl)-methyl]-2,8-diazaspiro[4.5]decane-2-carbonyl]-2,3-dihydro-1H-inden-1-yl]-5-(trifluoromethyl)-benzamide] |
| 75 | O=C(NC1CCc2ccc(C(=O)N3CCC4(CCN(Cc5cc(F)ccc5F)CC4)C3)cc21)c1cc(C(F)(F)F)ccc1Cl (stereo not shown) [IND_CC-634, 2-Chloro-N-[6-[8-[(2,5-difluoro-phenyl)-methyl]-2,8-diazaspiro[4.5]decane-2-carbonyl]-2,3-dihydro-1H-inden-1-yl]-5-(trifluoromethyl)-benzamide] |
| 72 | O=C(NC1CCc2ccc(C(=O)N3CCC4(CCN(Cc5ccc(F)cc5F)CC4)C3)cc21)c1cc(C(F)(F)F)ccc1Cl (stereo not shown) [IND_CC-635, 2-Chloro-N-[6-[8-[(2,4-difluoro-phenyl)-methyl]-2,8-diazaspiro[4.5]decane-2-carbonyl]-2,3-dihydro-1H-inden-1-yl]-5-(trifluoromethyl)-benzamide] |
| 79 | COc1ccc(CN2CCC3(CC2)CCN(C(=O)c2ccc4c(c2)C(NC(=O)c2cc(C(F)(F)F)ccc2Cl)CC4)C3)cc1F (stereo not shown) [IND_CC-636, 2-Chloro-N-[6-[8-[(3-fluoro-4-methoxy-phenyl)-methyl]-2,8-diazaspiro[4.5]-decane-2-carbonyl]-2,3-dihydro-1H-inden-1-yl]-5-(trifluoromethyl)-benzamide] |
| 69 | COc1cccc(F)c1CN1CCC2(CC1)CCN(C(=O)c1ccc3c(c1)C(NC(=O)c1cc(C(F)(F)F)ccc1Cl)CC3)C2 (stereo not shown) [IND_CC-637, 2-Chloro-N-[6-[8-[(2-fluoro-6-methoxy-phenyl)-methyl]-2,8-diazaspiro[4.5]-decane-2-carbonyl]-2,3-dihydro-1H-inden-1-yl]-5-(trifluoromethyl)-benzamide] |
| 80 | O=C(NC1CCc2ccc(C(=O)N3CCC4(CCN(Cc5ccc[nH]5)CC4)CC3)cc21)c1cc(C(F)(F)F)ccc1Cl (stereo not shown) [IND_CC-638, 2-Chloro-N-[6-[9-(1H-pyrrol-2-yl-methyl)-3,9-diazaspiro[5.5]undecane-3-carbonyl]-2,3-dihydro-1H-inden-1-yl]-5-(trifluoromethyl)-benzamide] |
| 78 | O=C(NC1CCc2ccc(C(=O)N3CCC4(CCN(Cc5c[nH]cn5)CC4)CC3)cc21)c1cc(C(F)(F)F)ccc1Cl (stereo not shown) [IND_CC-639, 2-Chloro-N-[6-[9-(1H-imidazol-4-yl-methyl)-3,9-diazaspiro[5.5]undecane-3-carbonyl]-2,3-dihydro-1H-inden-1-yl]-5-(trifluoromethyl)-benzamide] |
